Laboratory results reported in patent publication US20040001845A1, “Cytotoxic T-cell epitopes of HIV-1 virus” (priority 2002, published 2004).
Where two headings read alike, the source gives them in different places.

How the values were obtained:
[1] = tested on: PBMC (HIV-1-specific CD8+ T cells) of subject AC-06; experiment: IFN-γ Elispot assay of HIV-1-specific CD8+ T cell responses in subject AC-06; assay type: cell-based, human
HLA-A11 = experiment: Association of peptides with HLA allele A11 (recognition by individuals expressing HLA-A11); assay type: cell-based, human
[2] = subject AC-06, 0 months after infection
[3] = subject AC-06, 2 months after infection
[4] = subject AC-06, 6 months after infection
[5] = subject AC-06, 12 months after infection
[6] = subject AC-06, 18 months after infection
[7] = subject AC-06, 20 months after infection
[8] = subject AC-06, 24 months after infection
[9] = subject AC-06, 29.5 months after infection
[10] = subject AC-06, 34 months after infection

AIFQSSMTK [A3-ATK9]
magnitude of HIV-1-specific CD8+ T cell responses at the single epitope level [1, 2]: 0 SFC/Million PBMC
magnitude of HIV-1-specific CD8+ T cell responses at the single epitope level [1, 3]: 0 SFC/Million PBMC
magnitude of HIV-1-specific CD8+ T cell responses at the single epitope level [1, 4]: 0 SFC/Million PBMC
magnitude of HIV-1-specific CD8+ T cell responses at the single epitope level [1, 5]: 0 SFC/Million PBMC
magnitude of HIV-1-specific CD8+ T cell responses at the single epitope level [1, 6]: 0 SFC/Million PBMC
magnitude of HIV-1-specific CD8+ T cell responses at the single epitope level [1, 7]: 0 SFC/Million PBMC
magnitude of HIV-1-specific CD8+ T cell responses at the single epitope level [1, 8]: 0 SFC/Million PBMC
magnitude of HIV-1-specific CD8+ T cell responses at the single epitope level [1, 9]: 290 SFC/Million PBMC
magnitude of HIV-1-specific CD8+ T cell responses at the single epitope level [1, 10]: 420 SFC/Million PBMC
HLA (association with HLA allele A11; recognized by individuals expressing HLA-A11) (HLA-A11): All
HLA (association with HLA allele A11; recognized by individuals expressing HLA-A11) (HLA-A11; listed as SEQ ID NO: 5): recognized

QIYPGIKVR [A3-QR9]
magnitude of HIV-1-specific CD8+ T cell responses at the single epitope level [1, 2]: 0 SFC/Million PBMC
magnitude of HIV-1-specific CD8+ T cell responses at the single epitope level [1, 3]: 0 SFC/Million PBMC
magnitude of HIV-1-specific CD8+ T cell responses at the single epitope level [1, 4]: 0 SFC/Million PBMC
magnitude of HIV-1-specific CD8+ T cell responses at the single epitope level [1, 5]: 0 SFC/Million PBMC
magnitude of HIV-1-specific CD8+ T cell responses at the single epitope level [1, 6]: 0 SFC/Million PBMC
magnitude of HIV-1-specific CD8+ T cell responses at the single epitope level [1, 7]: 760 SFC/Million PBMC
magnitude of HIV-1-specific CD8+ T cell responses at the single epitope level [1, 8]: 1000 SFC/Million PBMC
magnitude of HIV-1-specific CD8+ T cell responses at the single epitope level [1, 9]: 1200 SFC/Million PBMC
magnitude of HIV-1-specific CD8+ T cell responses at the single epitope level [1, 10]: 840 SFC/Million PBMC
HLA (association with HLA allele A11; recognized by individuals expressing HLA-A11) (HLA-A11): All
HLA (association with HLA allele A11; recognized by individuals expressing HLA-A11) (HLA-A11; listed as SEQ ID NO: 6): recognized

AVDLSHFLK [A3-ALK9]
magnitude of HIV-1-specific CD8+ T cell responses at the single epitope level [1, 2]: 0 SFC/Million PBMC
magnitude of HIV-1-specific CD8+ T cell responses at the single epitope level [1, 3]: 0 SFC/Million PBMC
magnitude of HIV-1-specific CD8+ T cell responses at the single epitope level [1, 4]: 0 SFC/Million PBMC
magnitude of HIV-1-specific CD8+ T cell responses at the single epitope level [1, 5]: 0 SFC/Million PBMC
magnitude of HIV-1-specific CD8+ T cell responses at the single epitope level [1, 6]: 0 SFC/Million PBMC
magnitude of HIV-1-specific CD8+ T cell responses at the single epitope level [1, 7]: 450 SFC/Million PBMC
magnitude of HIV-1-specific CD8+ T cell responses at the single epitope level [1, 8]: 350 SFC/Million PBMC
magnitude of HIV-1-specific CD8+ T cell responses at the single epitope level [1, 9]: 1200 SFC/Million PBMC
magnitude of HIV-1-specific CD8+ T cell responses at the single epitope level [1, 10]: 1100 SFC/Million PBMC
HLA (association with HLA allele A11; recognized by individuals expressing HLA-A11) (HLA-A11): All
HLA (association with HLA allele A11; recognized by individuals expressing HLA-A11) (HLA-A11; listed as SEQ ID NO: 11): recognized

KTKPPLPSVKK [A3-KK11]
magnitude of HIV-1-specific CD8+ T cell responses at the single epitope level [1, 2]: 0 SFC/Million PBMC
magnitude of HIV-1-specific CD8+ T cell responses at the single epitope level [1, 3]: 0 SFC/Million PBMC
magnitude of HIV-1-specific CD8+ T cell responses at the single epitope level [1, 4]: 0 SFC/Million PBMC
magnitude of HIV-1-specific CD8+ T cell responses at the single epitope level [1, 5]: 0 SFC/Million PBMC
magnitude of HIV-1-specific CD8+ T cell responses at the single epitope level [1, 6]: 0 SFC/Million PBMC
magnitude of HIV-1-specific CD8+ T cell responses at the single epitope level [1, 7]: 150 SFC/Million PBMC
magnitude of HIV-1-specific CD8+ T cell responses at the single epitope level [1, 8]: 340 SFC/Million PBMC
magnitude of HIV-1-specific CD8+ T cell responses at the single epitope level [1, 9]: 600 SFC/Million PBMC
magnitude of HIV-1-specific CD8+ T cell responses at the single epitope level [1, 10]: 1200 SFC/Million PBMC

RIRTWKSLVK [A3-RK10]
magnitude of HIV-1-specific CD8+ T cell responses at the single epitope level [1, 2]: 0 SFC/Million PBMC
magnitude of HIV-1-specific CD8+ T cell responses at the single epitope level [1, 3]: 0 SFC/Million PBMC
magnitude of HIV-1-specific CD8+ T cell responses at the single epitope level [1, 4]: 0 SFC/Million PBMC
magnitude of HIV-1-specific CD8+ T cell responses at the single epitope level [1, 5]: 0 SFC/Million PBMC
magnitude of HIV-1-specific CD8+ T cell responses at the single epitope level [1, 6]: 0 SFC/Million PBMC
magnitude of HIV-1-specific CD8+ T cell responses at the single epitope level [1, 7]: 180 SFC/Million PBMC
magnitude of HIV-1-specific CD8+ T cell responses at the single epitope level [1, 8]: 270 SFC/Million PBMC
magnitude of HIV-1-specific CD8+ T cell responses at the single epitope level [1, 9]: 1100 SFC/Million PBMC
magnitude of HIV-1-specific CD8+ T cell responses at the single epitope level [1, 10]: 1600 SFC/Million PBMC

HPVHAGPIA [B7-HA9]
magnitude of HIV-1-specific CD8+ T cell responses at the single epitope level [1, 2]: 0 SFC/Million PBMC
magnitude of HIV-1-specific CD8+ T cell responses at the single epitope level [1, 3]: 0 SFC/Million PBMC
magnitude of HIV-1-specific CD8+ T cell responses at the single epitope level [1, 4]: 0 SFC/Million PBMC
magnitude of HIV-1-specific CD8+ T cell responses at the single epitope level [1, 5]: 0 SFC/Million PBMC
magnitude of HIV-1-specific CD8+ T cell responses at the single epitope level [1, 6]: 0 SFC/Million PBMC
magnitude of HIV-1-specific CD8+ T cell responses at the single epitope level [1, 7]: 0 SFC/Million PBMC
magnitude of HIV-1-specific CD8+ T cell responses at the single epitope level [1, 8]: 0 SFC/Million PBMC
magnitude of HIV-1-specific CD8+ T cell responses at the single epitope level [1, 9]: 700 SFC/Million PBMC
magnitude of HIV-1-specific CD8+ T cell responses at the single epitope level [1, 10]: 360 SFC/Million PBMC

ERILSTYLGR [A3-ER10]
magnitude of HIV-1-specific CD8+ T cell responses at the single epitope level [1, 2]: 0 SFC/Million PBMC
magnitude of HIV-1-specific CD8+ T cell responses at the single epitope level [1, 3]: 0 SFC/Million PBMC
magnitude of HIV-1-specific CD8+ T cell responses at the single epitope level [1, 4]: 0 SFC/Million PBMC
magnitude of HIV-1-specific CD8+ T cell responses at the single epitope level [1, 5]: 0 SFC/Million PBMC
magnitude of HIV-1-specific CD8+ T cell responses at the single epitope level [1, 6]: 0 SFC/Million PBMC
magnitude of HIV-1-specific CD8+ T cell responses at the single epitope level [1, 7]: 0 SFC/Million PBMC
magnitude of HIV-1-specific CD8+ T cell responses at the single epitope level [1, 8]: 310 SFC/Million PBMC
magnitude of HIV-1-specific CD8+ T cell responses at the single epitope level [1, 9]: 460 SFC/Million PBMC
magnitude of HIV-1-specific CD8+ T cell responses at the single epitope level [1, 10]: 1300 SFC/Million PBMC

SPAIFQSSM [B7-SM9]
magnitude of HIV-1-specific CD8+ T cell responses at the single epitope level [1, 2]: 0 SFC/Million PBMC
magnitude of HIV-1-specific CD8+ T cell responses at the single epitope level [1, 3]: 0 SFC/Million PBMC
magnitude of HIV-1-specific CD8+ T cell responses at the single epitope level [1, 4]: 0 SFC/Million PBMC
magnitude of HIV-1-specific CD8+ T cell responses at the single epitope level [1, 5]: 0 SFC/Million PBMC
magnitude of HIV-1-specific CD8+ T cell responses at the single epitope level [1, 6]: 0 SFC/Million PBMC
magnitude of HIV-1-specific CD8+ T cell responses at the single epitope level [1, 7]: 90 SFC/Million PBMC
magnitude of HIV-1-specific CD8+ T cell responses at the single epitope level [1, 8]: 130 SFC/Million PBMC
magnitude of HIV-1-specific CD8+ T cell responses at the single epitope level [1, 9]: 1400 SFC/Million PBMC
magnitude of HIV-1-specific CD8+ T cell responses at the single epitope level [1, 10]: 1000 SFC/Million PBMC
